Laboratory results as given in patent EP4725948A1, “PYRROLO[2,3-D]PYRIMIDIN-4-AMINE DERIVATIVE AND USE THEREOF IN MEDICINE” (Haisco Pharmaceutical Group Co., Ltd., priority 2023, dated 2024).

biological target: T1, soluble guanylate cyclase (sGC) (Homo sapiens, UniProt Q02108+Q02153); assay: In vitro detection experiment for soluble guanylate cyclase (sGC) activity (TR-FRET); details: not given;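 also: enzyme reaction started with GTP and run for 60 min at 37°C, followed by a 60 min detection step at room temperature, with EC50 obtained by nonlinear curve fitting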
T1 sequence (Q02108 1-690): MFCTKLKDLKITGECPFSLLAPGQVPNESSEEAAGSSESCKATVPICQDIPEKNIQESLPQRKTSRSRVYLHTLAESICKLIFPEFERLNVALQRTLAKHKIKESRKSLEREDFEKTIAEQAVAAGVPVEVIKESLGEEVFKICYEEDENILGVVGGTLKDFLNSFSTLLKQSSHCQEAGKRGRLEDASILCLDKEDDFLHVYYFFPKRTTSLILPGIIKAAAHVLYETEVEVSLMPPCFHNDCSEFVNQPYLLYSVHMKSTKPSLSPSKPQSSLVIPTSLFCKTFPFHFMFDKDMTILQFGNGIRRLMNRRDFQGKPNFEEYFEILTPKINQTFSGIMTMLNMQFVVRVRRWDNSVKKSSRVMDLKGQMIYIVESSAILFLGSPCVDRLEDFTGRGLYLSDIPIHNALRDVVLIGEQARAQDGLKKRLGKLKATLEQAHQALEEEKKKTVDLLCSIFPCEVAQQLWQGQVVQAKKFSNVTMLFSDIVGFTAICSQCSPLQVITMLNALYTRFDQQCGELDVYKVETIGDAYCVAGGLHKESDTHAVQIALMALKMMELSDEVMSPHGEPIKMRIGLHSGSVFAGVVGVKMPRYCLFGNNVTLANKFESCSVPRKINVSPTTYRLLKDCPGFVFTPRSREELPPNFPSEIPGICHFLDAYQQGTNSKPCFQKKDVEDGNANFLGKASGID
T1 sequence (Q02153 1-619): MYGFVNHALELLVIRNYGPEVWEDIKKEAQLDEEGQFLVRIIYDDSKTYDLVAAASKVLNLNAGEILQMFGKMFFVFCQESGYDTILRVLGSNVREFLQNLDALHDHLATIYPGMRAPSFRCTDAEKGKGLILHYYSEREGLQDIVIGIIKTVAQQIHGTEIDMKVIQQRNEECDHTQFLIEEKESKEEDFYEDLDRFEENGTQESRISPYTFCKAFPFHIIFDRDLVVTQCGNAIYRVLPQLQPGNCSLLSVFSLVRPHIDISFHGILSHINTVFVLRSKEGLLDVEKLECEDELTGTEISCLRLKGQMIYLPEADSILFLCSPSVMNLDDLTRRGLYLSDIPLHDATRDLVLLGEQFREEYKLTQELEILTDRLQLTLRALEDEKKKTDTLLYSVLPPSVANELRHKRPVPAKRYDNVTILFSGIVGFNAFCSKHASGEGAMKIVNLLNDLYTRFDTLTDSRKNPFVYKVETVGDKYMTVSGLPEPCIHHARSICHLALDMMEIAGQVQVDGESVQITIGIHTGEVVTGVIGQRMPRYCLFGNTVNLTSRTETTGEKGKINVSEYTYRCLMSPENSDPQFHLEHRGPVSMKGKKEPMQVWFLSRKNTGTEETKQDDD

EC50 [µM] | Compound
< 0.02 | CC(C)(Cc1csc(C2(C)C(=O)Nc3nc(-n4nc(CCC(F)(F)C(F)(F)F)c5ncc(F)cc54)nc(N)c32)n1)C(=O)O (racemic) [Compound 37]
< 0.02 | CC(C)(Cc1csc(C2(C)C(=O)Nc3nc(-n4nc(Cc5ccccc5F)c5c(F)cccc54)nc(N)c32)n1)C(=O)O (racemic) [Compound 41]
< 0.02 | CC(C)(Cc1csc(C2(C)C(=O)Nc3nc(-n4c(=O)n(Cc5ccccc5F)c5cc(F)ccc54)nc(N)c32)n1)C(=O)O (racemic) [Trifluoroacetate of compound 38]
< 0.02 | CC(C)(Cc1cccc(C2(C)C(=O)Nc3nc(-n4nc(CCC(F)(F)C(F)(F)F)c5ncccc54)nc(N)c32)c1)C(=O)O (stereo not drawn) [Trifluoroacetate of compound 5]
< 0.02 | CC(C)(Cc1csc(C2(C)C(=O)Nc3nc(-n4nc(CC5CCCCC5)c5ncc(F)cc54)nc(N)c32)n1)C(=O)O (stereo not drawn) [Compound 44]
< 0.02 | CC(C)(Cc1coc(C2(C)C(=O)Nc3nc(-c4nc(CCC(F)(F)C(F)(F)F)n5cc(F)ccc45)nc(N)c32)n1)C(=O)O (stereo not drawn) [Compound 46]
< 0.02 | CC(C)(Cc1coc(C2(C)C(=O)Nc3nc(-n4nc(Cc5ccccc5F)c5cc(Cl)ccc54)nc(N)c32)n1)C(=O)O (stereo not drawn) [Trifluoroacetate of compound 34]
< 0.02 | CC(C)(Cc1csc(C2(C)C(=O)Nc3nc(-n4c(=O)n(Cc5cccc(F)c5F)c5ncc(F)cc54)nc(N)c32)n1)C(=O)O (stereo not drawn) [Trifluoroacetate of compound 28]
< 0.02 | CC(C)(Cc1csc(C2(C)C(=O)Nc3nc(-n4c(=O)n(CCC(F)(F)C(F)(F)F)c5ncccc54)nc(N)c32)n1)C(=O)O (stereo not drawn) [Trifluoroacetate of compound 10]
< 0.02 | CC(C)(Cc1csc(C2(C)C(=O)Nc3nc(-n4c(=O)n(CCC(F)(F)C(F)(F)F)c5c(F)cccc54)nc(N)c32)n1)C(=O)O (racemic) [Trifluoroacetate of compound 14]
< 0.02 | CC(C)(Cc1coc(C2(C)C(=O)Nc3nc(-n4nc(Cc5cccc(F)c5F)c5c(F)cccc54)nc(N)c32)n1)C(=O)O (stereo not drawn) [Compound 42]
< 0.02 | CC(C)(Cc1csc(C2(C)C(=O)Nc3nc(-c4nc(CCC(F)(F)C(F)(F)F)n5cc(F)ccc45)nc(N)c32)n1)C(=O)O (racemic) [Compound 45]
< 0.02 | CC(C)(Cc1coc(C2(C)C(=O)Nc3nc(-n4nc(Cc5ccccc5F)c5c(F)cccc54)nc(N)c32)n1)C(=O)O (stereo not drawn) [Compound 40]
< 0.02 | CC(C)(Cc1csc(C2(C)C(=O)Nc3nc(-c4nn(Cc5ccccc5F)c5cccnc45)nc(N)c32)n1)C(=O)O (stereo not drawn) [Trifluoroacetate of compound 23]
< 0.02 | CC(C)(Cc1csc(C2(C)C(=O)Nc3nc(-n4nc(Cc5cccc(F)c5F)c5ncc(F)cc54)nc(N)c32)n1)C(=O)O (racemic) [Compound 36]

The remaining lines, values behind:

Compound | EC50 [µM]
CC(C)(Cc1cccc(C2(C)C(=O)Nc3nc(-n4c(=O)n(CCC(F)(F)C(F)(F)F)c5ncccc54)nc(N)c32)c1)C(=O)O (racemic) [Compound 9] | < 0.02
CC(C)(Cc1coc(C2(C)C(=O)Nc3nc(-n4c(=O)n(CCC(F)(F)C(F)(F)F)c5cc(F)ccc54)nc(N)c32)n1)C(=O)O (stereo not drawn) [Compound 11] | < 0.02
CC(C)(Cc1cccc(C2(C)C(=O)Nc3nc(-n4c(=O)n(CCC(F)(F)C(F)(F)F)c5cc(Cl)ccc54)nc(N)c32)c1)C(=O)O (single isomer, unassigned) [Compound 1-2] | < 0.02
CC(C)(Cc1csc(C2(C)C(=O)Nc3nc(-n4c(=O)n(CCC(F)(F)C(F)(F)F)c5ncc(F)cc54)nc(N)c32)n1)C(=O)O (racemic) [Compound 12] | < 0.02
CC(C)(Cc1csc(C2(C)C(=O)Nc3nc(-c4nn(CCC(F)(F)C(F)(F)F)c5cc(Cl)cnc45)nc(N)c32)n1)C(=O)O (stereo not drawn) [Compound 20] | < 0.02
CC(C)(Cc1csc(C2(C)C(=O)Nc3nc(-c4nc(CCC(F)(F)C(F)(F)F)n5ncccc45)nc(N)c32)n1)C(=O)O (racemic) [Compound 3] | < 0.02
CC(C)(Cc1csc(C2(C)C(=O)Nc3nc(-c4nn(Cc5cccc(F)c5F)c5cccnc45)nc(N)c32)n1)C(=O)O (stereo not drawn) [Compound 24] | < 0.02
CC(C)(Cc1csc(C2(C)C(=O)Nc3nc(-n4nc(Cc5ccccc5F)c5ncc(F)cc54)nc(N)c32)n1)C(=O)O (racemic) [Compound 35] | < 0.02
CC(C)(Cc1cccc(C2(C)C(=O)Nc3nc(-c4nc(CCC(F)(F)C(F)(F)F)n5ncccc45)nc(N)c32)c1)C(=O)O (stereo not drawn) [Compound 18] | < 0.02
CC(C)(Cc1csc(C2(C)C(=O)Nc3nc(-c4nc(Cc5ccccc5F)n5ncccc45)nc(N)c32)n1)C(=O)O (racemic) [Compound 19] | < 0.02
CC(C)(Cc1coc(C2(C)C(=O)Nc3nc(-c4nn(CCC(F)(F)C(F)(F)F)c5cc(Cl)cnc45)nc(N)c32)n1)C(=O)O (stereo not drawn) [Compound 21] | < 0.02
CC(C)(Cc1csc(C2(C)C(=O)Nc3nc(-n4nc(CCC(F)(F)C(F)(F)F)c5cc(Cl)ccc54)nc(N)c32)n1)C(=O)O (racemic) [Trifluoroacetate of compound 4] | < 0.02
CC(C)(Cc1csc(C2(C)C(=O)Nc3nc(-n4nc(CCC(F)(F)C(F)(F)F)c5ncccc54)nc(N)c32)n1)C(=O)O (stereo not drawn) [Compound 29] | < 0.02
CC(C)(Cc1csc(C2(C)C(=O)Nc3nc(-n4nc(CCC(F)(F)C(F)(F)F)c5cc(F)ccc54)nc(N)c32)n1)C(=O)O (racemic) [Compound 17] | < 0.02
CC(C)(Cc1coc(C2(C)C(=O)Nc3nc(-n4c(=O)n(CCC(F)(F)C(F)(F)F)c5c(F)cccc54)nc(N)c32)n1)C(=O)O (stereo not drawn) [Compound 16] | < 0.02
CC(C)(Cc1csc(C2(C)C(=O)Nc3nc(-n4c(=O)n(CC5CCCCC5)c5ncc(F)cc54)nc(N)c32)n1)C(=O)O (stereo not drawn) [Compound 13] | < 0.02

same assay, conditions: enzymatic agonism and/or activation of sGC; 1.5 nM sGC, 5 µM GTP, 100 µM DETA NONOate

EC50 [µM] | Compound
< 0.02 | CC(C)(Cc1coc(C2(C)C(=O)Nc3nc(-n4nc(CCC(F)(F)C(F)(F)F)c5cc(F)ccc54)nc(N)c32)n1)C(=O)O (stereo not drawn) [Trifluoroacetate of compound 33]
< 0.02 | CC(C)(Cc1csc(C2(C)C(=O)Nc3nc(-n4c(=O)n(Cc5ccccc5F)c5c(F)cccc54)nc(N)c32)n1)C(=O)O (stereo not drawn) [Trifluoroacetate of compound 15]
< 0.02 | CC(C)(Cc1csc(C2(C)C(=O)Nc3nc(-n4nc(Cc5ccccc5F)c5cc(Cl)ccc54)nc(N)c32)n1)C(=O)O (stereo not drawn) [Trifluoroacetate of compound 32]

Continued, molecule first:

Compound | EC50 [µM]
CC(C)(Cc1csc(C2(C)C(=O)Nc3nc(-n4c(=O)n(CCC(F)(F)C(F)(F)F)c5cc(F)ccc54)nc(N)c32)n1)C(=O)O (stereo not drawn) [Compound 31] | < 0.02
CC(C)(Cc1coc(C2(C)C(=O)Nc3nc(-n4c(=O)n(CCC(F)(F)C(F)(F)F)c5cc(Cl)ccc54)nc(N)c32)n1)C(=O)O (stereo not drawn) [Compound 8] | < 0.02

system: not listed separately; assay: Pharmacokinetic test in rats (inhalation administration); details: SD rats, single inhalation dose 0.03 mg/kg
Experimental: Experimental objective: In this experiment, the test compound was administered as a single dose via inhalation to SD rats, and the concentrations of the test compound in rat plasma and lungs were determined to evaluate the pharmacokinetic characteristics and bioavailability of the test compound in the rats.
Experimental animals: Male SD rats, 180-200 g, purchased from Chengdu Dossy Experimental Animals Co., Ltd.
Experimental method: On the day of the experiment, SD rats were randomly assigned into 6 groups according to body weight (for each compound), with 2 rats in each group. The rats were fasted with water available for 12 to 16 hours one day before the administration, and were fed 4 hours after the administration.
Plasma sampling: before and after the administration, blood was taken from the orbits of the rats under isoflurane anaesthesia, and placed in an EDTAK2 centrifuge tube. Centrifugation was performed at 6000 rpm at 4°C for 10 min, and the plasma was collected.
Lung tissue sampling: Animals from each group were euthanised by CO2 inhalation at 0.25, 0.5, 1, 4, 7 and 24 hours after the administration. Then, the animal was dissected to collect lung tissue, which was rinsed with physiological saline, dried with filter paper, weighed in the balance, kept on wet ice and homogenised within 2 hours using a 6-fold volume (i.e., 6 mL per 1 g of tissue) of homogenisation buffer (50% methanol-water).
Before analysis and detection, all samples were stored at -60°C. The samples were analysed quantitatively by LC-MS/MS.

Lung AUC0-t/plasma AUC0-t | Compound
245 | CC(C)(Cc1csc([C@]2(C)C(=O)Nc3nc(-c4nc(Cc5ccccc5F)n5ncccc45)nc(N)c32)n1)C(=O)O [Compound 19-1]
49.1 | CC(C)(Cc1csc(C2(C)C(=O)Nc3nc(-n4nc(Cc5cccc(F)c5F)c5ncc(F)cc54)nc(N)c32)n1)C(=O)O (single isomer, unassigned) [Compound 36-1]

same assay, conditions: SD rats, single inhalation dose 0.03 mg/kg, lung tissue

Lung AUC0-t [µg·h/mL] | Lung Cmax [µg/mL] | Compound
12.248 | 2.842 | CC(C)(Cc1csc([C@]2(C)C(=O)Nc3nc(-c4nc(Cc5ccccc5F)n5ncccc45)nc(N)c32)n1)C(=O)O [Compound 19-1]
10.133 | 4.067 | CC(C)(Cc1csc(C2(C)C(=O)Nc3nc(-n4nc(Cc5cccc(F)c5F)c5ncc(F)cc54)nc(N)c32)n1)C(=O)O (single isomer, unassigned) [Compound 36-1]
